The record followed here is US9079900B2, “Methods of synthesis and purification of heteroaryl compounds” (SIGNAL PHARMACEUTICALS, LLC, priority 2009, dated 2015).

What is called melting point is the temperature of the solid-liquid transition. The molecule `CC(C)(O)c1ccc(-c2cnc3c(n2)N(CCN2CCOCC2)CC(=O)N3)cn1` [Example 5, 6-(6-(2-Hydroxypropan-2-yl)pyridin-3-yl)-4-(2-morpholinoethyl)-3,4-dihydropyrazino[2,3-b]pyrazin-2(1H)-one] returned a melting point of 239 to 241 °C.

Regarding `O=C1CNc2ncc(-c3cnc4[nH]ccc4c3)nc2N1CCC1CCOCC1` [Example 15, 7-(1H-Pyrrolo[2,3-b]pyridin-5-yl)-1-(2-(tetrahydro-2h-pyran-4-yl)ethyl)-3,4-dihydropyrazino[2,3-b]pyrazin-2(1H)-one], the melting point was in the range of 255 to 258 °C.
